In patent US20120165319A1, “INHIBITORS OF INTERLEUKIN-1 BETA CONVERTING ENZYME” (VERTEX PHARMACEUTICALS INCORPORATED, priority 1995, published 2012):
Where two headings read alike, the source gives them in different places.

Tests used:
[1] = molecular target: T1, ICE (Homo sapiens, UniProt P29466); assay: Enzyme assay with UV-visible substrate (visible ICE assay, Succinyl-Tyr-Val-Ala-Asp-pNitroanilide); format: biochemical
T1 sequence (P29466 120-297 limits assumed): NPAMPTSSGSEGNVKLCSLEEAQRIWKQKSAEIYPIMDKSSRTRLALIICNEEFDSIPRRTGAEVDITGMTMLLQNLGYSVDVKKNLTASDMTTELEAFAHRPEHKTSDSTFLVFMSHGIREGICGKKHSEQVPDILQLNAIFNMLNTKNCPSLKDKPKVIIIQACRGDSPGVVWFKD
T1 sequence (P29466 317-404 limits assumed): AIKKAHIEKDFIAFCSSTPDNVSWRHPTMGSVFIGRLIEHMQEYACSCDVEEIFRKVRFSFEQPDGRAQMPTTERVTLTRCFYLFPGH
Outline: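 Colorimetric caspase-1 activity: 15 min enzyme-inhibitor preincubation (RT), then Suc-Tyr-Val-Ala-Asp-pNA; 405-603 nm kinetics, 20 min, 37° C. Ki from rate fitting.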

[2] = system: IL-1β, human peripheral blood mononuclear cells (PBMC); assay: PBMC cell assay: IL-1β assay with human PBMC or enriched adherent mononuclear cells, LPS-stimulated; format: cell-based
Outline: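 Buffy-coat human PBMC at 6×10^6 cells/ml, or adherent monocytes enriched by 1 h adherence (2.5−3.0×10^5 cells/well), are given 5–6 compound dilutions bracketing the ICE Ki (final DMSO 0.1%) plus LPS at a final 5 ng/ml. They are incubated 16–18 hr at 37 °C, 5% CO2, and supernatant mature IL-1β is measured by ELISA, with duplicate cultures and duplicate ELISAs.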

[3] = Pharmacokinetic studies in the mouse (i.v. clearance, plasma levels); format: in vivo; conditions: CD-1, plasma, iv, mouse, 25 mg/kg
Protocol: Pharmacokinetic Studies in the Mouse
Sample Preparation and Dosing
Compounds were dissolved in sterile TRIS solution (0.02M or 0.05M) at a concentration of 2.5 mg/ml. Where necessary to ensure a complete solution, the sample was first dissolved in a minimum of dimethylacetamide (maximum of 5% of total solution volume) then diluted with the TRIS solution.
The drug solution was administered to CD-1 mice (Charles River Laboratories—26-31 g) via the tail vein at a dose volume of 10 ml/kg giving a drug dose of 25 mg/kg.
Mice were dosed in groups of 5 for each timepoint (generally from 2 minutes to 2 hours) then at the appropriate time the animals were anaesthetised with halothane and the blood collected into individual heparinized tubes by jugular severance. The blood samples were cooled to 0° C. then the plasma separated and stored at −20° C. until assayed.
Drug concentration in the plasma samples were determined by HPLC analysis with UV or MS (ESP) detection. Reverse phase chromatography was employed using a variety of bonded phases from C1 to C18 with eluents composed of aqueous buffer/acetonitrile mixtures run under isocratic conditions.
Quantitation was by external standard methods with calibration curves constructed by spiking plasma with drug solutions to give concentrations in the range of 0.5 to 50 μg/ml.
Prior to analysis the plasma samples were deproteinated by the addition of acetonitrile, methanol, trichloroacetic acid or perchloric acid followed by centrifugation at 10,000 g for 10 minutes. Sample volumes of 20 μl to 50 μl were injected for analysis.
The drug was dissolved in sterile 0.02M Tris to give a 2.5 mg/ml solution which was administered to […] of 5 male CD-1 mice via the tail vein at a dose of 25 mg/kg. At each of the following timepoints: 2, 5, 10, 15, 20, 30, 45, 60, 90 and 120 minutes a group of animals was anaesthetised and the blood collected into heparinized tubes. After separation the plasma was stored at −20° C. until assayed.
Aliquots of plasma (150 μl) were treated with 5% perchloric acid (5 μl) then mixed by vortexing and allowed to stand for 90 minutes prior to centrifugation. The resulting supernatant was separated and 20 μl was injected for HPLC analysis.
Aliquots of plasma (100 μl) were diluted with acetonitrile (100 μl) then mixed by vortexing for 20 seconds before centrifugation for 10 minutes. The resulting supernatant was separated and 20 μl was injected for HPLC analysis.

[4] = In vivo rat clearance assay; conditions: plasma, iv
Protocol: In Vivo Rat Clearance Assay
Cannulations of the jugular and carotid vessels of rats under anesthesia were performed one day prior to the pharmacokinetic study. M. J. Free, R. A. Jaffee; ‘Cannulation techniques for the collection blood and other bodily fluids’; in: Animal Models; p. 480-495; N. J. Alexander, Ed.; Academic Press; (1978). Drug (10 mg/mL) was administered via the jugular vein in a vehicle usually consisting of: propylene glycol/saline, containing 100 mM sodium bicarbonate in a 1:1 ratio. Animals were dosed with 10-20 mg drug/kg and blood samples were drawn at 0, 2, 5, 7, 10, 15, 20, 30, 60, and 90 minutes from an indwelling carotid catheter. The blood was centrifuged to plasma and stored at −20° C. until analysis. Pharmacokinetic analysis of data was performed by non-linear regression using standard software such as RStrip (MicroMath Software, UT) and/or Pcnonlin (SCI Software, NC) to obtain clearance values.
Rat plasma was extracted with an equal volume of acetonitrile (containing 0.1% TFA). Samples were then centrifuged at approximately 1,000×g and the supernatant analyzed by gradient HPLC. A typical assay procedure is described below.
A standard curve was run at 20, 10, 5, 2 and 1 μg/mL concentrations.

[5] = system: IL-1β production, LPS-challenged mice; assay: In vivo acute assay for efficacy as anti-inflammatory agent: LPS-induced IL-1β production in mice; design: species or system mouse; conditions: for inhibition at 50 mg/kg: Mus musculus, po, LPS challenged mice, compound PO, read-out: percent inhibition of IL-1β production
Outline: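 CD1 mice (n=6) were challenged with LPS 20 mg/kg IP and given compound IP in olive oil:DMSO:ethanol (90:5:5) 1 h after LPS, or at the time of challenge for some analogs. Blood was taken 7 h after LPS and serum IL-1β was measured by ELISA. Oral gavage at 50 mg/kg was also tested.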

[6] = system: IL-1β, human whole blood; assay: Whole blood assay for IL-1β production; format: cell-based; conditions: * = values obtained upon reassay, read-out: Whole human blood IC50
Outline: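 Human whole blood collected on Na2EDTA was treated with serially diluted compound in saline and then stimulated with LPS at 5.0 ng/ml final, for 16-18 h at 30 °C, in duplicate or triplicate. Plasma IL-1β was measured by ELISA at 1:200 dilution.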

[7] = Homo sapiens, PBMC, * = values obtained upon reassay
[8] = * = values obtained upon reassay
[9] = 0 h, administered 0 h relative to time of LPS challenge
[10] = 1 h, administered +1 h relative to time of LPS challenge
[11] = 2 h, administered −2 h relative to time of LPS challenge
[12] = % inhibition of IL-β production, LPS-challenged mice, 50 mg/kg (Table 3)

| SMILES | Ki ([1]; Table 5) [nM] | IC50 [2, 7] [nM] | clearance [3] [mL/min/kg] | clearance ([4]; 10-20 mg/kg) [mL/min/kg] | inhibition at 50 mg/kg [5, 9] [%] | inhibition at 50 mg/kg [5, 11] [%] | also measured |
| --- | --- | --- | --- | --- | --- | --- | --- |
| COC(=O)N1C[C@H](NC(=O)c2ccccc2)C(=O)N(CC(=O)N[C@H](C=O)CC(=O)O)c2ccccc21 [Compound 605j, (3S)-3-[(3S)-2-Oxo-3-benzoylamino-5-methoxycarbonyl-2,3,4,5-tetrahydro-1H-1,5-benzodiazepin-1-acetylamino]-4-oxo-butyric acid] | 110 | 8750 | 71 |  |  |  |  |
| COc1ccc(C(=O)N[C@H]2CCC(=O)N3CCC[C@@H](C(=O)N[C@H](C=O)CC(=O)O)N3C2=O)cc1 [Compound 452] | 4.5 | 600 |  | 27.3 | 89 | 28 | IC50 [2, 8]: 800 nM; inhibition at 50 mg/kg [5, 10]: 70% |
| CC(=O)Nc1ccc(C(=O)N[C@H]2CCC(=O)N3CCC[C@@H](C(=O)N[C@H](C=O)CC(=O)O)N3C2=O)cc1 [Compound 418] | 2.2 |  | 13 | 5.9 | 52 | 25 | inhibition at 50 mg/kg [5, 10]: 64% |
| O=C[C@H](CC(=O)O)NC(=O)CN1C(=O)[C@@H](NC(=O)c2ccccc2)CN(C(=O)c2ccccc2)c2ccccc21 [Compound 605c, (3S)-3-[(3S)-2-Oxo-3-benzoylamino-5-benzoyl-2,3,4,5-tetrahydro-1H-1,5-benzodiazepin-1-acetylamino]-4-oxo-butyric acid] | 615 | 4500 | 37 |  |  |  |  |
| COc1ccccc1NC(=O)NN1CCC(=O)N2CCC[C@@H](C(=O)N[C@H](C=O)CC(=O)O)N2C1=O [Compound 265d, [3S(4S)]3-[6,10-Dioxo-7-(2-methoxyphenylureido)-1,2,3,4,7,8,9,10-octahydro-6H-pyridazino[1,2-a][1,2,4]-triazepine-4-carboxamido]-4-oxobutanoic acid] |  |  |  |  |  |  | Ki ([1]; Table 17): 500 nM; IC50 ([2]; Homo sapiens, PBMC, Table 17): 1500 nM; clearance ([4]; Table 17): 35 mL/min/kg |
| CS(=O)(=O)N[C@H]1CCC(=O)N2CCC[C@@H](C(=O)N[C@@H](CC(=O)O)C(=O)c3nc4cc(Cl)cc(Cl)c4o3)N2C1=O [Compound 223b, [3S(1S,9S)]-4-(5,7-Dichlorobenzoxazol-2-yl)-3-(6,10-dioxo-9-methylsulphonylamino-1,2,3,4,7,8,9,10-octahydro-6H-pyridazino[1,2-a][1,2]diazepine-1-carboxamido)-4-oxobutanoic acid] | 99 | 5000 | > 100 |  |  |  |  |
| Nc1ccc(C(=O)N[C@H]2CCC(=O)N3CCC[C@@H](C(=O)N[C@H](C=O)CC(=O)O)N3C2=O)cc1Cl [Compound 481] | 1.2 |  |  | 34 | 0 | 27 | IC50 [6]: 500 nM; IC50 ([6]; Homo sapiens): 600 nM |
| CC(=O)N1C[C@H](NC(=O)c2ccccc2)C(=O)N(CC(=O)N[C@H](C=O)CC(=O)O)c2ccccc21 [Compound 605d, (3S)-3-[(3S)-2-Oxo-3-benzoylamino-5-acetyl-2,3,4,5-tetrahydro-1H-1,5-benzodiazepin-1-acetylamino]-4-oxo-butyric acid] | 95 | 5100 | 33 |  |  |  |  |
| O=C[C@H](CC(=O)O)NC(=O)[C@@H]1CCCN2C(=O)CC[C@H](NC(=O)c3ccc4ncccc4c3)C(=O)N12 [Compound 438] | 28 | 1000 |  | 22 |  |  | IP % Inhibition [5, 12]: 40%; POS Inhibition ([5]; % inhibition of IL-β production, LPS-challenged mice, PO, 50 mg/kg (Table 3)): 13% |
| O=C[C@H](CC(=O)O)NC(=O)[C@@H]1CCCN2C(=O)CC[C@H](NC(=O)C(=O)c3ccccc3)C(=O)N12 [Compound 2002, [3S(1S,9S)]3-(9-Benzoylformylamino-6,10-dioxo-1,2,3,4,7,8,9,10-octahydro-6H-pyridazino[1,2-a][1,2]-diazepine-1-carboxamido)-4-oxobutanoic acid] | 4 | 810 |  | 32 | 87 | 5 | IC50 [2, 8]: 860 nM; IP % Inhibition [5, 12]: 78% |
| COc1cccc(NC(=O)NN2CCC(=O)N3CCC[C@@H](C(=O)N[C@H](C=O)CC(=O)O)N3C2=O)c1 [Compound 265c, [3S(4S)]3-[6,10-Dioxo-7-(3-methoxyphenylureido)-1,2,3,4,7,8,9,10-octahydro-6H-pyridazino[1,2-a][1,2,4]triazepine-4-carboxamido]-4-oxobutanoic acid] |  |  |  |  |  |  | Ki ([1]; Table 17): 1100 nM; IC50 ([2]; Homo sapiens, PBMC, Table 17): 4500 nM; clearance ([4]; Table 17): 32 mL/min/kg |
| O=C(O)C[C@H](NC(=O)[C@@H]1CCCN2C(=O)CC[C@H](NC(=O)c3ccccc3)C(=O)N12)C(=O)CSc1nccs1 [Compound 510a, [3S(1S,9S)]3-(9-Benzoylamino-6,10-dioxo-1,2,3,4,7,8,9,10-octahydro-6H-pyridazino[1,2-a][1,2]diazepine-1-carboxamido)-5-(2-mercaptothiazole)-4-oxopentanoic acid] |  |  |  |  |  |  | Ki ([1]; Table 17): 65 nM; IC50 ([2]; Homo sapiens, PBMC, Table 17): 200 nM; clearance ([3]; Table 17): 267 mL/min/kg |
| O=C[C@H](CC(=O)O)NC(=O)CN1C(=O)[C@@H](NC(=O)c2ccccc2)CN(C(=O)Cc2ccccc2)c2ccccc21 [Compound 605b, (3S)-3-[(3S)-2-Oxo-3-benzoylamino-5-phenylacetyl-2,3,4,5-tetrahydro-1H-1,5-benzodiazepin-1-acetylamino]-4-oxo-butyric acid] | 45 | 10000 | 97 |  |  |  |  |
